What all share (format): in vivo
In data set [1] the test system is bleomycin-induced pulmonary fibrosis model in rats. Description: Dexamethasone side effect indicators (blood lipid metabolism) in the bleomycin-induced rat pulmonary fibrosis model. The following applies: FIG. 3; for leptin level compared with the normal control rats: bleomycin model rats. As for the experimental part: (§1) The quarantine and domestication period was 1 week, after which rats were serpentinely grouped by body weight into control and interstitial pneumonia model groups. On day 0 of the study, rats in the model group were given a single dose of 5 mg/kg bleomycin by a single intratracheal injection of bleomycin. The rats in the control group were given a single drop of saline. Immediately after completion, the animals were placed in an upright position and rotated to facilitate uniform distribution of the drug in the lungs. The animals were placed prone in a warm environment for natural awakening. Animals were fed and watered freely after awakening.
Serum potassium, glucose, triglycerides (TGs), total cholesterol (TC), free fatty acid (FFA), high density lipoprotein (HDL-c), low density lipoprotein (LDL-c), corticosterone (Corticosterone), and blood glucose were measured. HDL-c), low-density lipoprotein cholesterol (LDL-c), corticosterone (CORT), insulin, leptin, 5-hydroxy tryptamine (5-HT), […] norepinephrine (NE).

Data set [2] relates to bleomycin-induced rat model of pulmonary fibrosis. Nature of the data set: Blood inflammatory and pro-fibrotic cytokines (ELISA) in the bleomycin-induced rat model of pulmonary fibrosis. The following applies: for bleomycin-induced changes of multiple inflammatory cytokines in the blood of rats (overall statement): compared with the model group, N=6-10. As for the experimental part:
as §1
(§2) After the last administration, rats in each group were fasted without water for 12 h, anesthetized by intraperitoneal injection of […] chloral hydrate (3.5 mL/kg), blood was taken from the abdominal aorta, and the serum was separated by centrifugation at 3500 rpm for 15 min. ELISA was performed to detect the cytokines TNF-α, IL-1β, IFN-γ, IL-6, TGF-β1, and IL-4 in alveolar lavage fluid and serum, MCP-1/CCL2, and to detect the content of HYP, MMP2, MMP9, αvβ6, and VEGF in lung tissues, the steps were the same as the standard procedure of the kit.
Background: In an ELISA, binding on a coated surface is turned into a signal by an enzyme label.

For data set [3], the system named is bleomycin-induced pulmonary fibrosis model in rats. Description: Pro-fibrotic proteins and type I collagen in lung tissue of the bleomycin-induced rat pulmonary fibrosis model. The following applies: FIG. 2; for multiple pro-fibrotic proteins and collagen type I in rat lung tissues (overall statement): compared with the model group, N=3. As for the experimental part: as §1, §2

Where [4] appears, read: SD rats, bleomycin 5 mg/kg intratracheal day 0, drug by gavage once daily days 1-28, FIG. 1.
The mark [5] stands for this setting: bleomycin decreased the level, drug once daily days 1-28, FIG. 1.
[6] abbreviates: bleomycin model rats, change statistically significant.

The structures appear in SMILES notation.

Turning to `C[C@@H]1C[C@H]2[C@@H]3CCC4=CC(=O)C=C[C@]4(C)[C@@]3(F)[C@@H](O)C[C@]2(C)[C@@]1(O)C(=O)CO` [dexamethasone], the “leptin level compared with the normal control rats” value in data set [1] is given as “significantly reduced”. Also, in data set [1] (dexamethasone treatment in bleomycin model rats), the “total cholesterol in the blood” value is reported as “increase”. Also, the “triglycerides in the blood” value in data set [1] (dexamethasone treatment in bleomycin model rats, increase more pronounced than for total cholesterol) is on record as “increase”.

In the case of `CCCCCC(=O)O[C@]1(C(C)=O)CC[C@H]2[C@@H]3CCC4=CC(=O)CC[C@]4(C)[C@H]3CC[C@@]21C` [hydroxyprogesterone caproate], the “leptin level compared with the normal control rats” value in data set [1] is “significantly reduced”. Besides, in data set [2] (setting [4]), the “blood level of IL-1β” value is “significantly reduced”, the “blood level of IL-6” value was “significantly reduced”, the “blood level of MCP-1” value is given as “significantly reduced” and the “blood level of TGF-β1” value was “significantly reduced”. For the same molecule, the “blood level of TNF-α” value in data set [2] (setting [4]) is “significantly reduced”. In data set [2] (setting [5]), the “blood level of IFN-γ” value is “significantly and statistically increased”; the “blood level of IL-4” value was “significantly and statistically increased”. In addition, the “bleomycin-induced changes of multiple inflammatory cytokines in the blood of rats (overall statement)” value in data set [2] (FIG. 1) is on record as “significantly improve”. Further, the “bleomycin-induced changes of multiple inflammatory cytokines in the blood of rats (overall statement)” value in data set [2] (FIG. 1, listed as 17-αhydroxyprogesterone) was “significantly ameliorated”. The “combined improvement effect on inflammatory and pro-fibrotic factors in the blood, compared with pirfenidone” value in data set [2] (versus positive control drug pirfenidone (54 mg/kg)) was “significantly better than that of the positive control drug pirfenidone”. For the same molecule, in data set [3] (bleomycin model rats), the “CXCL-12 level in lung tissue” value is reported as “reduced”, the “MMP9 level in lung tissue” value is on record as “reduced” and the “collagen type I COL I protein level in lung tissue” value was “reduced”. Moreover, in data set [3] (setting [6]), the “MMP2 level in lung tissue” value is on record as “reduced”, the “PDGF level in lung tissue” value is “reduced”, the “SMAD2 level in lung tissue” value is “reduced” and the “SMAD3 level in lung tissue” value is recorded as “reduced”. In addition, in data set [3] (setting [6]), the “TGF-β1 level in lung tissue” value was “reduced”. Moreover, in data set [3], the “multiple pro-fibrotic proteins and collagen type I in rat lung tissues (overall statement)” value is reported as “significant inhibitory effects”. Moreover, the “multiple pro-fibrotic proteins and collagen type I in rat lung tissues (overall statement)” value in data set [3] (listed as 17-αhydroxyprogesterone) is “significantly ameliorated”.

The record behind these values is patent US20240299415A1, “TREATMENT METHOD FOR INTERSTITIAL PNEUMONIA” (priority 2020, published 2024).
